Patent US12357561B2, “Compositions and uses of alpha-adrenergic agents” (LEVATION PHARMA LTD., priority 2016, dated 2025)

System: New Zealand rabbits
Assay: Ocular observations after injection of oxymetazoline solutions into the post-septal fat pad of rabbits
Type: in vivo, rabbit
Conditions: for Palpebral Reflex / Threat Test: 100 μl post-septal fat pad injection; for Palpebral Reflex / Threat Test / eyelid closure (notes): Right Eye
Protocol: Rabbits without ocular pathology received oxymetazoline solutions by ocular injection. The evolution was tested postoperative, 1, 2, 3, 7, 10, and 14 day after oxymetazoline solutions administration. Eyelids were analyzed by histology at the end of the experiment. Endpoints included inflammation, fibrosis, pre- and post-septal fat, status of levator muscle and Müller's muscle, presence of vascular injury or necrosis or ischemic injury to eyelid tissues.
• Animals: female New Zealand rabbits (2.5-3 kg) • Sedation: atropine sulfate and midazolam IV (ear vein) • Anesthesia: induction with Propofol 1% (10 mg/kg) by ear vein • Maintenance with isoflurane (inhalant anesthesia) • Oxymetazoline solutions • Slit lamp Method Baseline Measures (1st Phase) • I. Animals (n=2); 2.5-3 kg New Zealand rabbit • II. Without sedation and anesthesia • III. Photographic record with a ruler (to serve as a standard measure of distance). Three sets of photos per measurements taken in dim lighting to keep rabbits from squinting • IV. 50 μl of 10% phenylephrine was administered via topical into the right eye (RE) • V. Photographic record with a ruler. Three sets of photos per measurements. After 20-30 minutes post-dose. • VI. Animals returned to animal housing. Test Article (Oxymetazoline Solutions) (2nd Phase) • I. Animals (n=3/each group); 2.5-3 kg New Zealand rabbit • II. Photographic record with a ruler (to serve as a standard measure of distance). Three sets of photos per measurements taken in dim lighting to keep rabbits from squinting. • III. Sedation with atropine sulfate and midazolam • IV. Induction with Propofol • V. Maintenance with isoflurane • VI. Ocular injection of oxymetazoline solutions or PBS (phosphate-buffered saline) • a. Group A: oxymetazoline 1 mg/ml in PBS (RE) and PBS (LE) • b. Group B: oxymetazoline 3 mg/ml in PBS (RE) and PBS (LE) • c. Group C: oxymetazoline 10 mg/ml in PBS (RE) and PBS (LE) All animals were administered 100 μI (0.1 ml) of the oxymetazoline solution (RE) or PBS vehicle control (LE) via an injection into the post-septal fat pad, adjacent to Müller's muscle of both eyelids on Day 0. For this injection, a 30G needle was used; test article was administered at least 4 mm away from the site of the needle entry to prevent reflux of fluid through the hole. • VII. Follow-up. • VIII. Euthanized animals 14 days after the injection of oxymetazoline solutions to process the eyelids tissues. • a. Harvest both eyelids from each animal and store in formalin • b. Histology (H/E staining) Follow-Up Follow-up included: • Eyelid retraction/ptosis measurements & digital photos with eyes directly facing camera and a ruler in the frame of the photograph to standardize distances. Three sets of photos per measurement taken in dim lighting to keep rabbits from squinting. • Slit-lamp biomicroscopy • Daily general health observations • Body weights prior to dosing and prior to sacrifice Study Variables • I. Palpebral fissure distance • II. Margin reflex distance 1 Results • Group A (1 mg/ml) • Notes: • pre-injection.
Group B (3 mg/ml) Notes: • pre-injection.

[1] = Group A 1 mg/ml in PBS, Day 2, animals #1/#2/#3
[2] = Group A 1 mg/ml in PBS, Day 3 morning, animals #1/#2/#3
[3] = Group A 1 mg/ml, Day 2 (3 h post-injection)
[4] = Group B 3 mg/ml in PBS, Day 2, animals #1/#2
[5] = Group B 3 mg/ml in PBS, Day 3 afternoon, animals #1/#2
[6] = Group B 3 mg/ml in PBS, Day 3 morning, animals #1/#2
[7] = Group B 3 mg/ml in PBS, Day 4 morning, animals #1/#2
[8] = Group B 3 mg/ml, Day 2 (3 h post-injection)

Cc1cc(C(C)(C)C)c(O)c(C)c1CC1=NCCN1 [oxymetazoline]
Abolished/Abolished/: Palpebral Reflex [1] | Threat Test [1] | Threat Test [2]
Delayed/: Threat Test (Group B 3 mg/ml in PBS, Day 5, animals #1/#2)
Delayed/Delayed/Delayed: Threat Test (Group A 1 mg/ml in PBS, Day 3 afternoon, animals #1/#2/#3) | Palpebral Reflex [2] | Threat Test (Group A 1 mg/ml in PBS, Day 4 afternoon, animals #1/#2/#3) | Threat Test (Group A 1 mg/ml in PBS, Day 4 morning, animals #1/#2/#3)
pressure applied to close eyelid: eyelid closure (notes) [3] | eyelid closure (notes) (Group A 1 mg/ml, Day 3 morning) | eyelid closure (notes) [8] | eyelid closure (notes) (Group B 3 mg/ml, Day 3 afternoon) | eyelid closure (notes) (Group B 3 mg/ml, Day 3 morning) | eyelid closure (notes) (Group B 3 mg/ml, Day 4 morning)
Delayed/Delayed: Palpebral Reflex [5] | Palpebral Reflex [6] | Threat Test (Group B 3 mg/ml in PBS, Day 4 afternoon, animals #1/#2) | Palpebral Reflex [7] | Threat Test [7]
Animal show ocular discomfort: ocular discomfort (notes) [3] | ocular discomfort (notes) [8]
Abolished/Abolished: Palpebral Reflex [4] | Threat Test [4] | Threat Test [5] | Threat Test [6]
